Consider 2 compounds from patent publication US20250090823A1, “MICRONEEDLE PATCH FOR ENHANCING ACCUMULATION OF PROTOPORPHYRIN IX IN SOLID TUMOR AND PREPARATION METHOD THEREFOR” (SHENZHEN UNIVERSITY, priority 2022, published 2025).

Molecules are shown by their SMILES. Some results are limits rather than exact numbers.

Series [1] deals with A375 melanoma cells. The series can be described thus: PpIX accumulation (mass) generated in A375 tumor cell by different nanoparticles. The class given is cell-based. Particulars: same concentration of 5-ALA (10.8 μg mL^−1). The source says: The biological effects of MN-CCPCA in accumulating PpIX in a cell and an in-vivo tumor are studied.
Series [2] deals with A375 tumor cell. The series can be described thus: Dynamic PpIX fluorescence in A375 tumor cell by high-content fluorescence microscopy. Particulars: equal amount of 5-ALA, time after hatching (incubation). The format is cell-based. From the text:
The dynamic fluorescence value of PpIX generated by an in-vivo cell is monitored in real time by high-content fluorescence microscopy.

Series [3] concerns subcutaneous U87MG glioblastoma. Put plainly: Tumor-volume inhibition after 3 repeated PDT, subcutaneous U87MG glioblastoma model. The class given is in vivo, mouse. Particulars: 50 mg/kg CCPCA NPs, 3.4 mg/kg 5-ALA, 635 nm laser 10 min at 6, 12, 24 h, 14 days.
Experimental: A specific characterization method is as follows: 20 U87MG model tumor mice with a tumor size of 100 mm^3 are equally divided into 4 experimental groups, namely the MN (+) group with blank microneedle and irradiated with laser, the 5-ALA i.v (+) group with tail intravenous injected with 5-ALA and irradiated with laser, the MN-5-ALA (+) group with 5-ALA microneedle delivery and irradiated with laser, the MN-CCPCA (+) group with transdermal microneedle loaded with 5-ALA and CAT using nanoparticles and irradiated with lase. The doses administered are 50 mg/kg of CCPCA NPs and 3.4 mg/kg of 5-ALA. The mice in the laser treatment group are irradiated with a laser with a wavelength of 635 nm for 10 minutes (200 mW/cm^2) at 6, 12, and 24 h, respectively. The volume of mouse tumor in each group on different days (0, 2, 4, 6, 8, 10, 12, 14) is measured by a vernier caliper.
Series [4] concerns 4T1 breast cancer subcutaneous tumor. The series can be described thus: Tumor-volume inhibition after PDT, 4T1 breast cancer subcutaneous tumor model. The class given is in vivo, mouse. Particulars: 50 mg/kg CCPCA NPs, 3.4 mg/kg 5-ALA, 635 nm laser 10 min at 12, 24, 36 h, 14 days.
Text: A specific characterization method is as follows: 20 4T1 model tumor mice with a tumor size of 100 mm^3 are equally divided into 4 experimental groups, namely the MN (+) group with blank microneedle and irradiated with laser, the 5-ALA i.v (+) group with tail intravenous injected with 5-ALA and irradiated with laser, the MN-5-ALA (+) group with 5-ALA microneedle delivery and irradiated with laser, the MN-CCPCA (+) group with transdermal microneedle loaded with 5-ALA and CAT using nanoparticles and irradiated with lase. The mice in the laser treatment group are irradiated with a laser with a wavelength of 635 nm for 10 minutes (200 mW/cm^2) at 12, 24, and 36 h, respectively. The doses administered are 50 mg/kg of CCPCA NPs and 3.4 mg/kg of 5-ALA. The volume of mouse tumor in each group on different days (0, 2, 4, 6, 8, 10, 12, 14) is measured by a vernier caliper.
For series [5] the following is noted: background statement; cited from earlier work.

`NCC(=O)CCC(=O)O` [5-ALA, 5-aminolevulinic acid]: in series [1], the “intracellular PpIX content” value is recorded as 35.1±3.3 ng/10^6 cells. In addition, the “time at which PpIX concentration/intensity in the cell reaches the maximum” value in series [2] worked out at 6 h. Further, the “tumor growth inhibition rate” value in series [3] came to 19.1%; in series [4] it was 27.5%.

On to `C=CC1=C(C)c2cc3[nH]c(cc4nc(cc5[nH]c(cc1n2)c(C)c5CCC(=O)O)C(CCC(=O)O)=C4C)c(C)c3C=C` [PpIX, Protoporphyrin IX], for which, in series [5], the “time of rapid clearance of PpIX in vivo” value is no more than 12 h and the “time to highest peak of PpIX synthesis in vivo” value is given as “about 4 hours”.
